Test results: US6331553A, “Aromatic amine derivatives having NOS inhibiting action” (Chugai Seiyaku Kabushiki Kaisha, priority 1996, dated 2001)
Where two headings read alike, the source gives them in different places.

What was measured:
[1] = tested on: iNOS; details: reported in the literature; cited from earlier work
[2] = target: T1, eNOS (Bos taurus, UniProt P29473); assay: Inhibitory effect on crude eNOS (conversion of L-[3H]arginine to L-[3H]citrulline); type: biochemical, Cow (pulmonary arterial endothelium cells, CPAE)
T1 construct: the resulting supernatant was used as the crude enzyme of eNOS; endogenous in cells; host or cells: CPAE (cow pulmonary arterial endothelium cells), 1% Triton X-100 extract
Protocol: (§1) Compounds of the invention were evaluated for their inhibitory effect on the presently known three NOS isoforms.
Crude enzymes of the respective NOS isoforms were prepared by the following procedures (Nagafuji et al., Neuroreport 6, 1541-1545, 1995).
The crude enzyme of eNOS was prepared by the following procedure. Cow pulmonary arterial endothelium cells (CPAE) were cultured in a MEM medium containing 20% FBS. Several days later, the cells were detached from the flask using a 0.25% trypsin solution containing 1 mM EDTA and, after addition of a suitable amount of FBS, centrifuged at 1,000 rpm for 10 min. A suitable amount of Ca- and Mg-free phosphate buffer (pH 7.4) was added to the precipitating cells and they were centrifuged at 1,000 rpm for 10 min. The same step was repeated to wash the cells which, upon addition of 50 mM Tris-HCl (pH 7.4) containing 1% Triton X-100 and 1 mM DTT, were left to stand in ice for 1 h. Subsequently, the mixture was homogenized for 3 min and kept in ice for 30 min with occasional stirring. Finally, the mixture was centrifuged at 100,000×g for 60 min and the resulting supernatant was used as the crude enzyme of eNOS.
The method of measuring NOS activity was basically the same as already reported by the present inventors and consisted of determining quantitatively the conversion of a substrate L-[^3 H]arginine to a reaction product L-[^3 H] citrulline (Nagafuji et al., in Brain Edema IX (Ito et al, eds.) 60, pp. 285-288, 1994; Nagafuji et al., Neuroreport 6, 1541-1545, 1995)
The reaction solution consisted of 100 nM L-[^3 H] arginine, a prepared crude NOS enzyme sample (10-30 μg/ml protein), 1.25 mM CaCl2, 1 mM EDTA, 10 μg/ml calmodulin, 1 mM NADPH, 100 μM tetrahydrobiopterine, 10 μM FAD, 10 μM FMN and 50 mM Tris-HCl (pH 7.4), to which one of the compounds of the invention or one of the control compounds was added.
(§2) The reaction was started by addition of L-[^3 H] arginine. After incubation at 37° C. for 10 min, the reaction was terminated by addition of 2 ml of 50 mM Tris-HCl (pH 5.5) containing 1 mM EDTA and placing the mixture on ice. The reaction solution was passed through a cation-exchange resin column (Dowex AG50WX-8, Na^+ form, 3.2 ml) to separate the reaction product L-[^3 H] citrulline from the unreacted residual substrate L-[^3 H] arginine. The eluate was combined with another eluate resulting from the passage of a given amount of distilled water through the column and put into a minivial for recovery of L-[^3 H] citrulline. Thereafter, a scintillation fluid was added and the contained radioactivity was measured with a liquid scintillation counter to determine the amount of L-[^3 H] citrulline.
(§3) The activity of nNOS or eNOS was determined by subtracting the activity detected in the absence of CaCl2 and calmodulin from the activity detected in the presence of CaCl2 and calmodulin. The activity of iNOS was detected in the absence of CaCl2 and calmodulin. The protein concentration of each crude enzyme sample was determined with a micro-assay kit of Bio Rad Co. Each Experiment was conducted in a duplicate.
Table 81 lists the mean values of IC50 (the concentration necessary to inhibit 50% activity) of all test compounds against each NOS isoform. The table also lists the ratios of IC50 values to each other as an index of selectivity.

[3] = target: T2, iNOS (Rattus norvegicus, UniProt Q06518); assay: Inhibitory effect on crude iNOS (conversion of L-[3H]arginine to L-[3H]citrulline); type: biochemical, Rats (lungs, LPS treated); details: for IC50: mean values, duplicate, crude enzyme from lungs of LPS-treated rats, 37° C. 10 min, read-out: Inhibitory action IC50 iNOS; for Selectivity eNOS/iNOS: ratio of IC50 values eNOS/iNOS
T2 construct: a soluble cytosolic fraction of the finally obtained supernatant was used as the crude enzyme of iNOS; from tissue; host or cells: lungs of LPS-treated rats, soluble cytosolic fraction (100,000×g supernatant)
Protocol: as §1
The crude enzyme of iNOS was prepared by the following procedure. Rats were administered LPS (10 mg/kg) intraperitoneally and, 6 h later, perfused in a transcardiac manner with physiological saline containing 10 U/ml of heparin; thereafter, lungs were taken out. Subsequently, 5 volumes of 50 mM Tris-HCl containing 1 mM DTT (pH 7.4) was added and the mixture was homogenized for 3 min, followed by centrifugation of the homogenate at 1,000×g for 10 min. The resulting supernatant was centrifuged at 100,000×g for 60 min and a soluble cytosolic fraction of the finally obtained supernatant was used as the crude enzyme of iNOS.
as §2, §3
The table also lists the ratios of IC50 values to each other as an index of selectivity.

[4] = target: T3, nNOS (Rattus norvegicus, UniProt P29476); assay: biochemical; set-up: species or system male Sprague Dawley (SD) rats (cerebral cortex); details: for Selectivity eNOS/nNOS: ratio of IC50 values eNOS/nNOS; for Selectivity iNOS/nNOS: ratio of IC50 values iNOS/nNOS
T3 construct: a soluble cytosolic fraction of the finally obtained supernatant was used as the crude enzyme of nNOS; from tissue; host or cells: rat cerebral cortex, soluble cytosolic fraction (100,000×g supernatant)
Protocol: The crude enzyme of nNOS was prepared by the following procedure. Normal untreated male Sprague Dawley (SD) rats (body weight, 300-400 g) were decapitated; the whole brain was immediately taken out from each animal and the cerebral cortex was separated on ice. Then, 5 volumes of 50 mM Tris-HCl containing 1 mM DTT (pH 7.4) was added and the mixture was homogenized for 3 min and centrifuged at 1,000×g for 10 min. The resulting supernatant was further centrifuged at 100,000×g for 60 min and a soluble cytosolic fraction of the finally obtained supernatant was used as the crude enzyme of nNOS.

[5] = tested on: nNOS; details: reported in the literature; cited from earlier work
[6] = tested on: nNOS; details: mouse model of focal cerebral ischemia; cited from earlier work
[7] = tested on: NOS isoform; details: reported in the literature; cited from earlier work
[8] = mean values, duplicate, crude enzyme from CPAE cells, 37° C. 10 min, read-out: Inhibitory action IC50 eNOS
[9] = mean values, duplicate, crude enzyme from rat cerebral cortex, 37° C. 10 min, read-out: Inhibitory action IC50 nNOS

T1 sequence (P29473 2-1205): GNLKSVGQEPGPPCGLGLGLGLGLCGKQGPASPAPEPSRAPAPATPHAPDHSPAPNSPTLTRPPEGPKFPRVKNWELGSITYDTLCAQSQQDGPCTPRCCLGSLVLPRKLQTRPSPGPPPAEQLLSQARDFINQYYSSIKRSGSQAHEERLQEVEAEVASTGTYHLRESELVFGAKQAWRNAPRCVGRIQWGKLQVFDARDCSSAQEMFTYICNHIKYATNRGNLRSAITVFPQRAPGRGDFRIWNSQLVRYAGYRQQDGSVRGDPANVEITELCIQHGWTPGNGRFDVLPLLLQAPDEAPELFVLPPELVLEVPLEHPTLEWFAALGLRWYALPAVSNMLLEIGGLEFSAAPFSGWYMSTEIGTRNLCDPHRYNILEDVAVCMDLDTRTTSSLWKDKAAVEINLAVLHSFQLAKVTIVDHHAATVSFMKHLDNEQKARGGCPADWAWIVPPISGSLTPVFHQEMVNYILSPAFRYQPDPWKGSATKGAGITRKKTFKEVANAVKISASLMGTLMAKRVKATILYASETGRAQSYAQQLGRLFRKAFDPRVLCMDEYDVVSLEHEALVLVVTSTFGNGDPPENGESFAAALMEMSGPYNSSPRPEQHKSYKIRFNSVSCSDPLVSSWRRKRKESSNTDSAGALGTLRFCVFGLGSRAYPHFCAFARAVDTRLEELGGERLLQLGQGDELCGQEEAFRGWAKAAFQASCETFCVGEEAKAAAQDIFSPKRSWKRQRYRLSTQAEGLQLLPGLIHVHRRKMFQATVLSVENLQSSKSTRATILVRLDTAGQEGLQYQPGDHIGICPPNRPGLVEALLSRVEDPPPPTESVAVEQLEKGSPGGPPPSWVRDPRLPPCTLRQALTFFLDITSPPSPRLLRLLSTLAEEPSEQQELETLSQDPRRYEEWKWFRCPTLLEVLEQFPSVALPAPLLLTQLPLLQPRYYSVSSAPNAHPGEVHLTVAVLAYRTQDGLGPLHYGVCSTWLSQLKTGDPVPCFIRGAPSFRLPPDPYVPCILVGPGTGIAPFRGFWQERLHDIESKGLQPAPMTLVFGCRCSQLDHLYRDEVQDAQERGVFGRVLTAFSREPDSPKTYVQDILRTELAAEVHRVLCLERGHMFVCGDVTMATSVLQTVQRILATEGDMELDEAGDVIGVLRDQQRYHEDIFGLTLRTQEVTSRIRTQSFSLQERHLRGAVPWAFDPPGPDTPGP

Structure (SMILES) | IC50 [2, 8] | IC50 [4, 9] | Selectivity eNOS/nNOS [4] | also measured
N=C(N)NN [AG, aminoguanidine] | – | – | – | selectivity for iNOS [1]: a certain degree of selectivity for iNOS
COc1ccc([N+](=O)[O-])c(Nc2cccc(CN)c2)n1 [Example 18] | 322 nM | 22.6 nM | 14 | IC50 [3]: 917 nM; Selectivity eNOS/iNOS [3]: 0.14; Selectivity iNOS/nNOS [4]: 41
Cc1ccc([N+](=O)[O-])c(Nc2cccc(CN)c2)n1.Cl [Example 52, 2-(3-aminomethylphenylamino)-6-methyl-3-nitropyridine hydrochloride] | 1480 nM | 79.8 nM | 19 | –
CCc1ccc([N+](=O)[O-])c(Nc2cccc(CN)c2)n1.Cl [Example 53, 2-(3-aminomethylphenylamino)-6-ethyl-3-nitropyridine hydrochloride] | 6620 nM | 86.1 nM | 77 | –
CCOc1ccc([N+](=O)[O-])c(Nc2cccc(CN)c2)n1 [Example 57] | 947 nM | 70.8 nM | 13 | –
CSc1ccc([N+](=O)[O-])c(Nc2cccc(CN)c2)n1 [Example 61] | 1610 nM | 126 nM | 13 | –
Cc1ccc([N+](=O)[O-])c(Nc2cccc(CN)c2)c1 [Example 151] | 679 nM | 126 nM | 5 | –
COc1ccc([N+](=O)[O-])c(Nc2cccc(CN)c2)c1 [Example 153] | 586 nM | 29.8 nM | 20 | –
COc1ccc([N+](=O)[O-])c(Nc2cccc(CN)c2C)n1 [Example 458] | 403 nM | 20.8 nM | 19 | –
COc1ccc([N+](=O)[O-])c(Nc2ccc(CCN)cc2)n1 [Example 460] | 1240 nM | 112 nM | 11 | –
COc1ccc([N+](=O)[O-])c(Nc2cccc(C(C)(C)N)c2)n1 [Example 462] | 257 nM | 16.4 nM | 16 | –
COc1ccc([N+](=O)[O-])c(Nc2cccc(CN)c2OC)n1 [Example 465] | 1000 nM | 31.2 nM | 32 | –
COc1ccc([N+](=O)[O-])c(Nc2ccc(Cl)c(CN)c2)n1 [Example 466] | 421 nM | 35.5 nM | 12 | –
COc1ccc([N+](=O)[O-])c(Nc2ccc(F)c(CN)c2)n1 [Example 467] | 275 nM | 19.6 nM | 14 | –
CCOc1c(CN)cccc1Nc1nc(OC)ccc1[N+](=O)[O-] [Example 468] | 2480 nM | 56.3 nM | 44 | –
COc1ccc([N+](=O)[O-])c(Nc2cccc(CN)c2Cl)n1 [Example 469] | 994 nM | 40 nM | 25 | –
Cc1ccnc(Nc2cccc(CN)c2)c1 [Example 478] | 448 nM | 61.6 nM | 7 | –
Cc1ccnc(Nc2cccc(C(C)(C)N)c2)c1 [Example 479] | 802 nM | 66.9 nM | 12 | –
Cc1ccnc(Nc2cccc(CN)c2C)c1 [Example 481] | 1980 nM | 78.1 nM | 25 | –

Structure (SMILES) | IC50 [2, 8] | IC50 [4, 9] | Selectivity eNOS/nNOS [4] | also measured
CCc1ccc(Nc2cc(C)ccn2)cc1CN [Example 482] | 1350 nM | 50.5 nM | 27 | –
CCOc1ccc(Nc2cc(C)ccn2)cc1CN [Example 483] | 711 nM | 65.4 nM | 11 | –
Cc1ccnc(Nc2ccccc2CCN)c1 [Example 484] | – | – | 18 | IC50 [2]: 1260 nM; IC50 [4]: 69.2 nM
Cc1ccnc(Nc2cccc(CN)c2Cl)c1 [Example 485] | 2880 nM | 54.4 nM | 53 | IC50 [3]: 1770 nM; Selectivity eNOS/iNOS [3]: 1.6; Selectivity iNOS/nNOS [4]: 32
Cc1ccnc(Nc2cccc(C3(N)CCC3)c2)c1 [Example 488] | 298 nM | 39.9 nM | 8 | –
Cc1ccnc(Nc2ccc(CCN)cc2)c1 [Example 489] | – | – | – | IC50 [4]: 22.1 nM
CCOc1c(CN)cccc1Nc1cc(C)ccn1 [Example 490] | 347 nM | 18.1 nM | 19 | –
Cc1ccnc(Nc2ccc(Cl)c(CN)c2)c1 [Example 491] | 1770 nM | 45.8 nM | 39 | –
CCCOc1c(CN)cccc1Nc1cc(C)ccn1 [Example 506] | 1290 nM | 29.1 nM | 45 | –
CCOc1c(Nc2cc(C)ccn2)ccc(Cl)c1CN [Example 521] | 485 nM | 19.5 nM | 25 | –
CCOc1c(Nc2cc(C)ccn2)ccc(C)c1CN [Example 522] | 398 nM | 19.7 nM | 20 | –
COc1c(CN)cccc1Nc1cc(C)ccn1 [Example 541] | 713 nM | 25.9 nM | 28 | –
Cc1ccnc(Nc2cccc(CN)c2OC(C)C)c1 [Example 543] | 250 nM | 12.5 nM | 20 | –
CCSC(=N)NCCC[C@H](N)C(=O)O [L-EIN, S-ethyl-L-thiocitrulline] | – | – | – | selectivity for nNOS [5]: a certain degree of selectivity for nNOS
CSC(=N)NCCC[C@H](N)C(=O)O [L-MIN, S-methyl-L-thiocitrulline] | – | – | – | selectivity for nNOS [5]: a certain degree of selectivity for nNOS
N=C(NCCC[C@H](N)C(=O)O)N[N+](=O)[O-] [L-NA, N^G -nitro-L-arginine, reference compound] | – | – | – | percent inhibition of nNOS activity and percent reduction of infarct volume [6]: correlate to each other; IC50 [3]: 3460 nM
COC(=O)[C@@H](N)CCCNC(=N)N[N+](=O)[O-] [L-NAME, N^G -nitro-L-arginine methyl ester] | – | – | – | highly selective inhibitory effect on a specific NOS isoform [7]: no existing NOS inhibitors including L-NA and N^G -nitro-L-arginine methyl ester (L-NAME) have a highly selective inhibitory effect on a specific NOS isoform
CC(=N)NCCC[C@H](N)C(=O)O [L-NIO, N^G -iminoethyl-L-ornithine] | – | – | – | selectivity for iNOS [1]: a certain degree of selectivity for iNOS
